Consider ten molecules from article PMC11866186, “Novel Benzimidazole–Oxadiazole Derivatives as Anticancer Agents with VEGFR2 Inhibitory Activity: Design, Synthesis, In Vitro Anticancer Evaluation, and In Silico Studies” (ACS Omega, 2025).

Like-named read-outs stand apart in the source and are kept apart here.

One assay deals with PANC-1 cell line. In words: MTT assay, PANC-1 cells. As to conditions: MTT, 24 h, read-out: IC50 against PANC-1. It counts as cell-based, human. Here is the method:
Cisplatin was used as a reference drug. […] There are hydroxyl and methoxy substituents on the phenyl ring attached to the benzimidazole. It has also been derivatized using different groups on the phenyl ring close to oxadiazole.
(§1) Many analyses are performed to determine cell proliferation. MTT analysis is one of the viability determination tests. According to the working mechanism of the method, the dye containing the tetrazolium ring reacts with the dehydrogenase enzymes in the cells, only to be reduced and broken down by the metabolic cells, turning into water-insoluble formazan crystals. Color changes associated with mitochondrial activity and resulting from the addition of a solvent as a result of the reaction are measured in the microplate reader as optical density data values.[30] Cells were planted in flat-bottomed, 96-well, sterile, lidded, disposable microplates with 1 × 10^4 cells per well in 200 μL of appropriate medium and were allowed to adhere to the plate bottom by incubating for 24 h. At the end of 24 h, 100 μL of medium was withdrawn, and test substances at different concentrations, prepared in 100 μL, were added. Following the substance application, after a 24 h incubation period, 20 μL of stock MTT solution (MTT solution dissolved in 5 mg/mL PBS and filtered before application) was added to each well and protected from light, and the incubation continued for 3 h. Then, the media of the cells were completely withdrawn, and 100 μL of DMSO was added to dissolve the formazan crystals. After shaking in the dark for 15 min, the optical densities (absorbance) of the color changes at 540–570 and 650 nm reference wavelengths were read in the microplate reader. The data were calculated and created in Microsoft Office Excel. For this purpose, first, the blind well value and the control groups of colored substances were removed from the optical readings. The averages of optical densities and % viability values were made from Excel formula calculations, and the results were discussed. The viability of the control group was assumed to be 100%, and all other viability values were calculated based on this (series were run in n = 5 replicates).

In a further assay the test system is A549 cell line. Kind of assay: MTT assay, A549 cells. It counts as cell-based, human. As to conditions: MTT, 24 h, read-out: IC50 against A549. Here is the method:
(§2) The synthesized compounds 4a–4s were screened for their in vitro anticancer activity via the standard MTT assay using three human tumor cell lines, namely, the human lung adenocarcinoma cell line (A549), the human breast cancer cell line (MCF-7), and the human pancreas cell line (PANC-1). Cisplatin was used as a reference drug. […] When the structures of the compounds are evaluated, it is seen that the compounds are derived from two different sources. There are hydroxyl and methoxy substituents on the phenyl ring attached to the benzimidazole. It has also been derivatized using different groups on the phenyl ring close to oxadiazole. When the activities in the PANC-1 cell line are evaluated, it is seen that the activity of compounds bearing the 2,4-dichloro substituent is especially high.
as §1

Another assay deals with MCF-7 cell line. Kind of assay: MTT assay, MCF-7 cells. The note with it: read-out: IC50 against MCF-7. It counts as cell-based, human. Here is the method:
as §2, §1

The subject of a further assay is hTERT-HPNE cell line. Kind of assay: MTT assay, normal pancreas hTERT-HPNE cells. It counts as cell-based. The note with it: normal human pancreas cells, 24 h, read-out: IC50 against hTERT-HPNE. Here is the method:
(§3) By comparing the compounds’ cytotoxic effects against tumor cell lines and normal cell lines, the drug safety parameter for the anticancer activity of the compounds was evaluated, thereby confirming their cytoprotective qualities. In this study, normal human lung (CCD-19Lu) and normal human pancreas (hTERT-HPNE) cell lines were used as controls. The selectivity index (SI) calculated for the compounds tested scales the IC50 values of the compounds against various tumor cell lines with the IC50 values against normal cell lines (Table 2). […] The differential selectivity indices underscore the importance of targeted therapeutic strategies and the potential for these compounds to provide selective anticancer effects with reduced toxicity to normal cells.
as §1
For orientation: Formazan colour is commonly taken as a measure of viable cells.

The test system of another assay is CCD-19Lu cell line. In words: MTT assay, normal lung CCD-19Lu cells. It counts as cell-based. The note with it: normal human lung cells, 24 h, read-out: IC50 against CCD-19Lu. Here is the method:
as §3, §1

The term IC50 denotes the midpoint of a concentration-inhibition curve. For `COc1ccc(-c2nc3ccc(-c4nnc(SCC(=O)c5ccc(C#N)cc5)o4)cc3[nH]2)cc1` [4o, 2-((5-(2-(4-Methoxyphenyl)-1H-benzimidazol-6-yl)-1,3,4-oxadiazol-2-yl)thio)-1-(4-cyanophenyl)-ethanone], the IC50 in the assay on PANC-1 cell line (Homo sapiens, PANC-1, 24 h) amounted to 70.9 µM; in the assay on A549 cell line (Homo sapiens, A549) it was 65.2 µM; in the assay on MCF-7 cell line (Homo sapiens, MCF7, 24 h) it was 49.2 µM; in the assay with hTERT-HPNE cell line, 64.2 µM; in the assay with CCD-19Lu cell line (CCD 19Lu), 48.4 µM.
With `COc1ccc(-c2nc3ccc(-c4nnc(SCC(=O)c5ccc(F)cc5)o4)cc3[nH]2)cc1` [4m, 2-((5-(2-(4-Methoxyphenyl)-1H-benzimidazol-6-yl)-1,3,4-oxadiazol-2-yl)thio)-1-(4-florophenyl)-ethanone], the IC50 was 41.1 µM in the assay on PANC-1 cell line (Homo sapiens, PANC-1, 24 h); 25.3 µM with A549 cell line (Homo sapiens, A549); 36.9 µM with MCF-7 cell line (Homo sapiens, MCF7, 24 h); 28.6 µM in the assay with hTERT-HPNE cell line; 20.2 µM in the assay with CCD-19Lu cell line (CCD 19Lu).
Taken in the same sequence, the figures for `O=C(CSc1nnc(-c2ccc3nc(-c4ccc(O)cc4)[nH]c3c2)o1)c1ccccc1` [4a, 2-((5-(2-(4-Hydroxyphenyl)-1H-benzimidazol-6-yl)-1,3,4-oxadiazol-2-yl)thio)-1-phenyl-ethanone] were 42.2 µM, 63.2 µM, 39.5 µM, 26.2 µM and 46.1 µM.
Taken in the same sequence, the figures for `O=C(CSc1nnc(-c2ccc3nc(-c4ccc(O)cc4)[nH]c3c2)o1)c1ccc(Cl)cc1` [4c, 2-((5-(2-(4-Hydroxyphenyl)-1H-benzimidazol-6-yl)-1,3,4-oxadiazol-2-yl)thio)-1-(4-chlorophenyl)-ethanone] were 17.7 µM, 6.3 µM, 6.1 µM, 21.5 µM and 16.3 µM.
As to “2-((5-(2-(4-Methoxyphenyl)-1H-benzimidazol-6-yl)-1,3,4-oxadiazol-2-yl)thio)-1-(4-methylphenyl)-ethanone [4k]”, the IC50 with PANC-1 cell line stood at 82 µM; in the assay with A549 cell line it was 74.7 µM; in the assay on MCF-7 cell line (24 h), 50.2 µM; in the assay with hTERT-HPNE cell line, 29.3 µM; in the assay with CCD-19Lu cell line it was 90.4 µM.
On to `COc1ccc(-c2nc3ccc(-c4nnc(SCC(=O)c5ccc(Br)cc5)o4)cc3[nH]2)cc1` [4n, 2-((5-(2-(4-Methoxyphenyl)-1H-benzimidazol-6-yl)-1,3,4-oxadiazol-2-yl)thio)-1-(4-bromophenyl)-ethanone], for which the IC50 worked out at 29.5 µM in the assay on PANC-1 cell line (Homo sapiens, PANC-1, 24 h); 19.6 µM with A549 cell line (Homo sapiens, A549); 28.9 µM in the assay with MCF-7 cell line (Homo sapiens, MCF7, 24 h); 36.2 µM in the assay on hTERT-HPNE cell line; 36.8 µM in the assay on CCD-19Lu cell line (CCD 19Lu).
Taken in the same sequence, the figures for `COc1ccc(-c2nc3ccc(-c4nnc(SCC(=O)c5ccccc5)o4)cc3[nH]2)cc1` [4j, 2-((5-(2-(4-Methoxyphenyl)-1H-benzimidazol-6-yl)-1,3,4-oxadiazol-2-yl)thio)-1-phenyl-ethanone] were 95.7 µM, 99.1 µM, 53.7 µM, 93.6 µM and 95.2 µM.
Taken in the same sequence, the figures for `O=C(CSc1nnc(-c2ccc3nc(-c4ccc(O)cc4)[nH]c3c2)o1)c1ccc(Br)cc1` [4e, 2-((5-(2-(4-Hydroxyphenyl)-1H-benzimidazol-6-yl)-1,3,4-oxadiazol-2-yl)thio)-1-(4-bromophenyl)-ethanone] were 83.8 µM, 96.1 µM, 95.2 µM, 11.3 µM and 95.3 µM.
Consider “2-((5-(2-(4-Hydroxyphenyl)-1H-benzimidazol-6-yl)-1,3,4-oxadiazol-2-yl)thio)-1-(4-methylphenyl)-ethanone [4b]”, for which the IC50 with PANC-1 cell line is 33.1 µM; in the assay on A549 cell line it was 5.1 µM; in the assay with MCF-7 cell line (24 h) it was 17.4 µM; in the assay on hTERT-HPNE cell line it was 86.8 µM; in the assay on CCD-19Lu cell line it was 40.3 µM.
The corresponding values for `N.N.[Cl][Pt][Cl]` [cisplatin, reference compound] are 28.8 µM, 19.7 µM, 14.7 µM, 30.6 µM and 22.6 µM.
